Measurements from ChEMBL document CHEMBL1909046, “DrugMatrix in vitro pharmacology data”.

How the values were obtained:
[1] = molecular target: Kappa-type opioid receptor (Homo sapiens, UniProt P41145); experiment: DRUGMATRIX: Opiate kappa (OP2, KOP) radioligand binding (ligand: [3H] Diprenorphine); format: cell membranes, HEK293, Membrane; details: Not Active = under 50% inhibition at 10 µM
[2] = molecular target: Glycine receptor (Rattus norvegicus, UniProt P22771+P24524+P07727+P20781); format: cell membranes, Wistar, Spinal cord, Membrane; note: in other assays of this panel Not Active means under 50% inhibition at 10 µM
[3] = DRUGMATRIX: beta-Lactamase enzyme inhibition (substrate: Nitrocefin); parameters: species or system Bacillus cereus; details: Not Active = under 50% inhibition at 10 µM
[4] = molecular target: T1, Alpha-1B adrenergic receptor (Rattus norvegicus, UniProt P15823); experiment: DRUGMATRIX: Alpha-1B adrenergic receptor radioligand binding (ligand: prazosin); format: cell membranes, Wistar, Liver, Membrane; details: Not Active = under 50% inhibition at 10 µM
T1 sequence (P15823 whole entry): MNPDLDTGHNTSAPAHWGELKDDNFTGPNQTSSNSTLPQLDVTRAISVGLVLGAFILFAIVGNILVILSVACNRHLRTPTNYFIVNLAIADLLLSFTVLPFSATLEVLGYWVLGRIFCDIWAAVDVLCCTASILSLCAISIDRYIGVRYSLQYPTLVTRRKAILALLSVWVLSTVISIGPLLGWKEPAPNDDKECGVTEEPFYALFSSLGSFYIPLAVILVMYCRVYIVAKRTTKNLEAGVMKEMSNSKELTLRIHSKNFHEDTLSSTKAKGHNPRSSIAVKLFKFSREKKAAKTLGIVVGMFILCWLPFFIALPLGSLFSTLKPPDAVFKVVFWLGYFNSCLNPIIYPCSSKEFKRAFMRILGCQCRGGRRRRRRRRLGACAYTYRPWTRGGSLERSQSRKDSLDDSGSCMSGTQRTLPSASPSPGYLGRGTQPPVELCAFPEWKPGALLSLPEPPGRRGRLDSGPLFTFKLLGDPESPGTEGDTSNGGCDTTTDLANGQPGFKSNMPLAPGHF

[5] = molecular target: Melanocortin receptor 4 (Homo sapiens, UniProt P32245); format: cell membranes, Membrane; details: hek293; note: in other assays of this panel Not Active means under 50% inhibition at 10 µM
Sequence of Melanocortin receptor 4 (P32245 whole entry): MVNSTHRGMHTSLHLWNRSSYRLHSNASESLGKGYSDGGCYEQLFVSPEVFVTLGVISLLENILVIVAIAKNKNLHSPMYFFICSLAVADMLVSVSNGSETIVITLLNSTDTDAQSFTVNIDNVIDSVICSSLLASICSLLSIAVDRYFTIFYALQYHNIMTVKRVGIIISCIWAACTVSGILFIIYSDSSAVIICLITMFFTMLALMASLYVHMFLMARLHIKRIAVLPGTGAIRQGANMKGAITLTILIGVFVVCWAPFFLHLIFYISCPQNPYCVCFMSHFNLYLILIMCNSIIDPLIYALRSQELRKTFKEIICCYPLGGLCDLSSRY

[6] = molecular target: T2, 3-hydroxy-3-methylglutaryl-coenzyme A reductase (Homo sapiens, UniProt P04035); parameters: species or system Escherichia coli;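 note: enzyme inhibition assay of HMG-CoA reductase using radiolabeled [14C]HMG-CoA as substrate; in other assays of this panel Not Active means under 50% inhibition at 10 µM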
T2 sequence (P04035 whole entry): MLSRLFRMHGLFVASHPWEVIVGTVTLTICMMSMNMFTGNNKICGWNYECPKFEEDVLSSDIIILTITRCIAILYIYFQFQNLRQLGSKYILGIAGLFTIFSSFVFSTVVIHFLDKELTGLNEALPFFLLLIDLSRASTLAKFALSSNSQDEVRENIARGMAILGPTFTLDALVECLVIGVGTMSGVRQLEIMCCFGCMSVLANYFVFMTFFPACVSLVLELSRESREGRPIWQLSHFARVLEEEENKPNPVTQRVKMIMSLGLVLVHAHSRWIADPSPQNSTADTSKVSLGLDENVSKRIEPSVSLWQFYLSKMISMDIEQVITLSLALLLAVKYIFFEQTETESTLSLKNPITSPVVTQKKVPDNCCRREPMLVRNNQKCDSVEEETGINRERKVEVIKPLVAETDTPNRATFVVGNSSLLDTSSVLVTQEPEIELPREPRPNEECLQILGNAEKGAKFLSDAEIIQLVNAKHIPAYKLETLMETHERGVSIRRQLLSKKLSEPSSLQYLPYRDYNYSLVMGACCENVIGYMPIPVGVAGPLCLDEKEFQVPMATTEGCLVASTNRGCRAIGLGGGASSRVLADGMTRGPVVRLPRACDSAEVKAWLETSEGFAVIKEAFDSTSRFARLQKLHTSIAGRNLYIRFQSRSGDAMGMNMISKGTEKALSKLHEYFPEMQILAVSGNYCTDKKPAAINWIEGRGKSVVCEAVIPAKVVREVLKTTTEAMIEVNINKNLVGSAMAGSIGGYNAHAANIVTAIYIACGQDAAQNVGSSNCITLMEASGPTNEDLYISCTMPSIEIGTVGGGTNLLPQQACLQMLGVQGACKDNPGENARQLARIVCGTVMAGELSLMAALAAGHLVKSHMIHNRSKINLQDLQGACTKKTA

[7] = molecular target: Acetylcholinesterase (Homo sapiens, UniProt P22303); experiment: DRUGMATRIX: Acetylcholinesterase enzyme inhibition (substrate: acetylthiocholine); format: cell-based, HEK293; details: hek293; Not Active = under 50% inhibition at 10 µM
Sequence of Acetylcholinesterase (P22303 whole entry): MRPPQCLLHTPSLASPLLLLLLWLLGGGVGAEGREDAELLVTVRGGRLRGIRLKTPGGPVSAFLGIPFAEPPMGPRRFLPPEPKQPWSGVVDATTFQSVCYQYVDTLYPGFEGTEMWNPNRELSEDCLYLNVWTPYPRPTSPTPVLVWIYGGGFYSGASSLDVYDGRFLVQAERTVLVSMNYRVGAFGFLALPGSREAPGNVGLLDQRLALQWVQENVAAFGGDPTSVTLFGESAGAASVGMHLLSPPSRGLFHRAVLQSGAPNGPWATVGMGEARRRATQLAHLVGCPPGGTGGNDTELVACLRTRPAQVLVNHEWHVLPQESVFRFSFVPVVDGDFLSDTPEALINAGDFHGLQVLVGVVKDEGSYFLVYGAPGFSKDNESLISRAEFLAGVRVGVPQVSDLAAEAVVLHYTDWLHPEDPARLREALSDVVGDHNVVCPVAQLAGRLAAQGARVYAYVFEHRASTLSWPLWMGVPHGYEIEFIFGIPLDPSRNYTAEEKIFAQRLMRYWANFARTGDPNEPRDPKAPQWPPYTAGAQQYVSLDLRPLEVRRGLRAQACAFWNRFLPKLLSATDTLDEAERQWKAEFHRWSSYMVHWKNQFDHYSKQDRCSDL

[8] = molecular target: Cytochrome P450 2C9 (Homo sapiens, UniProt P11712); details: bti-tn-5b1-4; note: in other assays of this panel Not Active means under 50% inhibition at 10 µM
Sequence of Cytochrome P450 2C9 (P11712 whole entry): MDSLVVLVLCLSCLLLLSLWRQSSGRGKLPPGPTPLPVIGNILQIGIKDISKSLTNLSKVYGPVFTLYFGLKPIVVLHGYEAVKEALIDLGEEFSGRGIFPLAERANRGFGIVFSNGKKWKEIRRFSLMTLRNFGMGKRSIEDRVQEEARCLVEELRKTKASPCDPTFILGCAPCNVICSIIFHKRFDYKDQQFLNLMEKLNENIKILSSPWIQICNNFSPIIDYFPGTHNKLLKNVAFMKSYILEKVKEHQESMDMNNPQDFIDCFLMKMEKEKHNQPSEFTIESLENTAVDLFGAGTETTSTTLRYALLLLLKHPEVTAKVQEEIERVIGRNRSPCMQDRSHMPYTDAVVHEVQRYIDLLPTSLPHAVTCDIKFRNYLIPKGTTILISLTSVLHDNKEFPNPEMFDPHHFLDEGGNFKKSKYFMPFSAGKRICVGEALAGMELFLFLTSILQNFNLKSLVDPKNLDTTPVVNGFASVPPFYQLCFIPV

Sequence of Kappa-type opioid receptor (P41145 whole entry): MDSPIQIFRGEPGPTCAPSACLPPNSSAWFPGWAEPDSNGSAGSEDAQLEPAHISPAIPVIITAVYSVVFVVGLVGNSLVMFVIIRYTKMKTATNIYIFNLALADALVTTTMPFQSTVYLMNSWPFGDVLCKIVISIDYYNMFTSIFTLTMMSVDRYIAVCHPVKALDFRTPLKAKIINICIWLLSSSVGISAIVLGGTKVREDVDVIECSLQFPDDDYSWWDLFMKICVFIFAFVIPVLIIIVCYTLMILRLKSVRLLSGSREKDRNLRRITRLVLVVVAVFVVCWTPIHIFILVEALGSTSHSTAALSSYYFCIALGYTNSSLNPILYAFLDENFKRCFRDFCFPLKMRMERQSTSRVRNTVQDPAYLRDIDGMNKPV

Row | Molecule | IC50 ([1]; hek293) | IC50 [2] | IC50 [3] | Ki [3] | IC50 [4] | IC50 [5] | IC50 [6] | IC50 [7] | IC50 [8] | Ki [8] | IC50 ([4]; read-out: IC50) | Ki ([4]; read-out: Ki) | Ki [1] | IC50 ([1]; read-out: IC50) | Ki [2] | Ki [4] | Ki [5] | Ki [6] | Ki [7]
1 | N[C@@H](Cc1ccc(F)cc1)C(=O)O | Not Active | Not Active | Not Active | Not Active | Not Active | Not Active | Not Active | Not Active | – | – | – | – | – | – | – | – | – | – | –
2 | O=C(c1ccccc1Cl)N1CCC(Cc2ccccc2)CC1 | Not Active | Not Active | Not Active | Not Active | Not Active | Not Active | Not Active | Not Active | – | – | – | – | – | – | – | – | – | – | –
3 | Clc1cc2c(cc1Cl)Oc1cc(Cl)c(Cl)cc1O2 [2,3,7,8-TETRACHLORODIBENZO-P-DIOXIN] | – | Not Active | Not Active | Not Active | Not Active | Not Active | Not Active | Not Active | Not Active | Not Active | – | – | – | – | – | – | – | – | –
4 | C[C@@H]1CC[C@H]2[C@@H](C)C(=O)O[C@@H]3O[C@@]4(C)CC[C@@H]1[C@]32OO4 [ARTEMISININ] | Not Active | Not Active | Not Active | Not Active | Not Active | Not Active | Not Active | Not Active | – | – | – | – | – | – | – | – | – | – | –
5 | CCc1oc2ccccc2c1C(=O)c1cc(Br)c(O)c(Br)c1 [BENZBROMARONE] | Not Active | Not Active | Not Active | Not Active | Not Active | Not Active | Not Active | Not Active | – | – | – | – | – | – | – | – | – | – | –
6 | CC(C)C[C@H]1C(=O)N2CCC[C@H]2[C@]2(O)O[C@](NC(=O)[C@@H]3C=C4c5cccc6[nH]c(Br)c(c56)C[C@H]4N(C)C3)(C(C)C)C(=O)N12 [BROMOCRIPTINE] | – | Not Active | Not Active | Not Active | – | Not Active | Not Active | Not Active | Not Active | Not Active | 3.55 nM | 1.96 nM | – | – | – | – | – | – | –
7 | CCC[C@@H]1C[C@@H](C(=O)N[C@@H]([C@H]2O[C@H](SC)[C@H](O)[C@@H](O)[C@H]2O)[C@H](C)Cl)N(C)C1 [CLINDAMYCIN] | Not Active | Not Active | Not Active | Not Active | Not Active | Not Active | Not Active | Not Active | – | – | – | – | – | – | – | – | – | – | –
8 | Nc1nc(N)nc(NC2CC2)n1 [CYROMAZINE] | – | Not Active | Not Active | Not Active | Not Active | Not Active | Not Active | Not Active | Not Active | Not Active | – | – | – | – | – | – | – | – | –
9 | C#C[C@]1(O)CC[C@H]2[C@@H]3CCC4=Cc5oncc5C[C@]4(C)[C@H]3CC[C@@]21C [DANAZOL] | – | Not Active | Not Active | Not Active | Not Active | Not Active | Not Active | Not Active | – | – | – | – | 6210 nM | 15500 nM | – | – | – | – | –
10 | CN1C(=O)CN=C(c2ccccc2)c2cc(Cl)ccc21 [DIAZEPAM] | Not Active | Not Active | Not Active | Not Active | Not Active | Not Active | Not Active | Not Active | – | – | – | – | – | – | – | – | – | – | –
11 | CN1C[C@H](C(=O)N[C@]2(C)O[C@@]3(O)[C@@H]4CCCN4C(=O)[C@H](Cc4ccccc4)N3C2=O)C[C@@H]2c3cccc4[nH]cc(c34)C[C@H]21 [DIHYDROERGOTAMINE] | – | Not Active | Not Active | Not Active | – | Not Active | Not Active | Not Active | Not Active | Not Active | 8.09 nM | 4.48 nM | – | – | – | – | – | – | –
12 | CCOC(=O)C1=C(C)NC(C)=C(C(=O)OC)C1c1cccc(Cl)c1Cl (stereo not given) [FELODIPINE] | Not Active | Not Active | Not Active | Not Active | Not Active | Not Active | Not Active | Not Active | – | – | – | – | – | – | – | – | – | – | –
13 | Cc1cn[nH]c1 [FOMEPIZOLE] | Not Active | Not Active | Not Active | Not Active | Not Active | Not Active | Not Active | Not Active | – | – | – | – | – | – | – | – | – | – | –
14 | Cc1cnc(C(=O)NCCc2ccc(S(=O)(=O)NC(=O)NC3CCCCC3)cc2)cn1 [GLIPIZIDE] | Not Active | Not Active | Not Active | Not Active | Not Active | Not Active | – | Not Active | – | – | – | – | – | – | – | – | – | – | –
15 | COc1ccccc1OCC(O)CO (stereo not given) [GUAIFENESIN] | Not Active | Not Active | Not Active | Not Active | Not Active | Not Active | Not Active | Not Active | – | – | – | – | – | – | – | – | – | – | –
16 | N=C(N)N/N=C/c1c(Cl)cccc1Cl [GUANABENZ] | Not Active | Not Active | Not Active | Not Active | – | Not Active | Not Active | Not Active | Not Active | Not Active | – | – | – | – | – | – | – | – | –
17 | C/C=C\c1ccc(O)c(OC)c1 [ISOEUGENOL] | Not Active | Not Active | Not Active | Not Active | Not Active | Not Active | Not Active | Not Active | – | – | – | – | – | – | – | – | – | – | –
18 | CC[C@H](C)C(=O)O[C@H]1C[C@@H](C)C=C2C=C[C@H](C)[C@H](CC[C@@H]3C[C@@H](O)CC(=O)O3)[C@H]21 [LOVASTATIN] | Not Active | Not Active | Not Active | Not Active | Not Active | Not Active | – | Not Active | – | – | – | – | – | – | – | – | – | – | –
19 | COc1ccc(Cc2nccc3cc(OC)c(OC)cc23)cc1OC [PAPAVERINE] | – | Not Active | Not Active | Not Active | Not Active | Not Active | Not Active | Not Active | Not Active | Not Active | – | – | – | – | – | – | – | – | –
20 | CC[C@H](C)C(=O)O[C@H]1C[C@H](O)C=C2C=C[C@H](C)[C@H](CC[C@@H](O)C[C@@H](O)CC(=O)O)[C@H]21 [PRAVASTATIN] | Not Active | Not Active | Not Active | Not Active | Not Active | Not Active | – | Not Active | Not Active | Not Active | – | – | – | – | – | – | – | – | –
21 | COBALT(II) ACETYLACETONATE | – | Not Active | Not Active | Not Active | Not Active | Not Active | Not Active | Not Active | Not Active | Not Active | – | – | – | – | Not Active | Not Active | Not Active | Not Active | Not Active
22 | INSULIN HUMAN | – | Not Active | Not Active | Not Active | Not Active | Not Active | Not Active | Not Active | Not Active | Not Active | – | – | – | – | Not Active | Not Active | Not Active | Not Active | Not Active
23 | POLYVINYL ALCOHOL | – | Not Active | Not Active | Not Active | Not Active | Not Active | Not Active | Not Active | Not Active | Not Active | – | – | – | – | Not Active | Not Active | Not Active | Not Active | Not Active
